Key:
MDA-MB-453 cells = experiment: Inhibition of proliferation of MDA-MB-453 cells (CCK-8 or CTG, 7-10 days); assay type: cell-based
Protocol: Triple negative breast cancer MDA-MB-453 cells in logarithmic growth stage were inoculated into a 96-well plate at a concentration of 4×10^3 cells/well, and then incubated in an incubator at 37° C., 5% CO2, and saturated humidity for 24 h or 48 h. To the negative control well, was added RPMI 1640 cell medium containing 10% fetal bovine serum in the same volume as the drug. After cultured for 24 h or 48 h, to the 96-well plate, were added AR PROTACs compounds 162, 177, 230, 259, 279, 281, 282, 325, 357, 400, ARV-110, ARV-766 and AR inhibitor HC-1119, respectively. The concentrations of compounds 177, 230, 259, 279, 281, 282, 325, 357, 400, ARV-110, and ARV-766 are 0 μM, 0.002 μM, 0.005 μM, 0.014 μM, 0.041 μM, 0.123 μM, 0.370 μM, 1.111 μM, 3.333 μM or 10 μM; while the concentrations of HC-1119 are 0 μM, 1.23 μM, 3.70 μM, 11.11 μM, 33.33 μM or 100 μM.
After addition of the drugs and co-incubation for 7-10 days, 10 μL of CCK-8 was added to each well, and then the plate was further cultured for 2 h. The absorbance value (OD) of each well was measured using a microplate reader at a wavelength of 450 nm. The survival rate was calculated using Prism software, the relative survival rate=(OD value of drug well/OD value of control well)×100%. Alternatively, 100 μL of medium was removed from each well, and then 50 μL of CTG was added. The plate was shaken in the dark for 2 min, allowed to stand for 10 min, and then measured using a microplate reader in Luminescence mode. Prism software was used to calculate the survival rate, the relative survival rate=(the RLU value of drug well/the RLU value of control well)×100%.

[1] = system: AR+ TNBC cells (MDA-MB-453, SUM159PT and MFM-223) and AR- TNBC (MDA-MB-468 and HCC1937); experiment: Antiproliferation in AR positive and negative TNBC cells (summary over the cell line panel); assay type: cell-based; settings: MDA-MB-453, SUM159PT, MFM-223, MDA-MB-468, HCC1937
Protocol: For MDA-MB-453, MFM-223, SUM159PT, MDA-MB-468, and HCC1937, 4,000, 3,000, 1,000, 3,000, and 3,000 cells were plated per well in 96-well microplates (Corning Inc), respectively. Cells were treated with serial dilutions of tested compounds with the maximum working concentration of 10 μM. Cell survival was measured 5 days later using a CellTiter-Glo luminescent cell viability assay kit (Promega Corporation). Luminescence was recorded by FLUOstar Omega microplate reader (BMG Labtech). Half maximal inhibitory concentration (IC50) was determined with GraphPad Prism using baseline correction (by normalizing to dimethyl sulfoxide (DMSO) control)

Q: Which “inhibitory effect on the proliferation of MDA-MB-453 cells” value (MDA-MB-453 cells) does the source give for `[2H]C([2H])([2H])NC(=O)c1ccc(N2C(=S)N(c3ccc(C#N)c(C(F)(F)F)c3)C(=O)C2(C)C)cc1F` [HC-1119] here?
A: weak inhibitory effect

Q: And the “anti-proliferation activity in all five cell lines” value [1]?
A: failed to show anti-proliferation activity

From patent US20250082763A1, “COMBINATION DRUG FOR TREATING TRIPLE-NEGATIVE BREAST CANCER” (HINOVA PHARMACEUTICALS INC., priority 2022, published 2025)
